Laboratory results from patent US10765114B2, “4-amino-6-(pyridyl and 2-substitutedphenyl)-picolinates and 6-amino-2-(pyridyl and 2-substitutedphenyl)-pyrimidine-4-carboxylates and their use as herbicides” (Dow AgroSciences LLC, priority 2013, dated 2020).

Test system: not given
Assay: not given
Conditions: not given
With COC(=O)c1nc(-c2ccc(OC)nc2)c(F)c(N)c1Cl [Compound 62] the melting point was 168 to 169 °C.

Test system: Key Grass and Sedge Weeds as well as Grass Crops
Assay: Post-Emergent Test II (Table 6)
Type: in vivo
Conditions: post-emergence, 336 h, CYPSS, 70 g ai/ha, 14 days after application, read-out: Visual Growth Reduction (%) 14 Days After Application CYPSS
Procedure, shortened: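 Visual injury ratings (0 = no injury, 100 = complete kill) were taken 14 days after treatment relative to untreated plants. Seedlings at the first or second true leaf stage received an overhead spray at 187 L/ha, and solvent-blank sprayed plants served as controls.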
Compound COC(=O)c1nc(-c2ccc(OC)nc2)c(F)c(N)c1Cl [Compound 62] has a pest or weed control at 70 g/ha of 0 to 29%.

Same assay, conditions: post-emergence, 336 h, CYPSS, 140 g ai/ha, 14 days after application, read-out: Visual Growth Reduction (%) 14 Days After Application CYPSS
COC(=O)c1nc(-c2ccc(OC)nc2)c(F)c(N)c1Cl [Compound 62] gave a pest or weed control at 140 g/ha of 30 to 44%.

Same assay, conditions: post-emergence, 336 h, DIGSA: crabgrass (Digitaria sanguinalis), 70 g ai/ha, 14 days after application, read-out: Visual Growth Reduction (%) 14 Days After Application DIGSA
For COC(=O)c1nc(-c2ccc(OC)nc2)c(F)c(N)c1Cl [Compound 62], the pest or weed control at 70 g/ha was 75 to 84%.

Same assay, conditions: post-emergence, 336 h, DIGSA: crabgrass (Digitaria sanguinalis), 140 g ai/ha, 14 days after application, read-out: Visual Growth Reduction (%) 14 Days After Application DIGSA
In the case of COC(=O)c1nc(-c2ccc(OC)nc2)c(F)c(N)c1Cl [Compound 62], the pest or weed control at 140 g/ha is reported as 60 to 74%.

Same assay, conditions: post-emergence, 336 h, ECHSS, 70 g ai/ha, 14 days after application, read-out: Visual Growth Reduction (%) 14 Days After Application ECHSS
In the case of COC(=O)c1nc(-c2ccc(OC)nc2)c(F)c(N)c1Cl [Compound 62], the pest or weed control at 70 g/ha is reported as 95 to 100%.

Same assay, conditions: post-emergence, 336 h, ECHSS, 140 g ai/ha, 14 days after application, read-out: Visual Growth Reduction (%) 14 Days After Application ECHSS
COC(=O)c1nc(-c2ccc(OC)nc2)c(F)c(N)c1Cl [Compound 62] showed a pest or weed control at 140 g/ha of 95 to 100%.

Same assay, conditions: post-emergence, 336 h, ORYSS (crop), 70 g ai/ha, 14 days after application, read-out: Visual Growth Reduction (%) 14 Days After Application ORYSS
COC(=O)c1nc(-c2ccc(OC)nc2)c(F)c(N)c1Cl [Compound 62] gave a pest or weed control at 70 g/ha of 0 to 29%.

Same assay, conditions: post-emergence, 336 h, ORYSS (crop), 140 g ai/ha, 14 days after application, read-out: Visual Growth Reduction (%) 14 Days After Application ORYSS
COC(=O)c1nc(-c2ccc(OC)nc2)c(F)c(N)c1Cl [Compound 62] showed a pest or weed control at 140 g/ha of 0 to 29%.

Same assay, conditions: post-emergence, 336 h, SETFA: giant foxtail (Setaria faberi), 70 g ai/ha, 14 days after application, read-out: Visual Growth Reduction (%) 14 Days After Application SETFA
COC(=O)c1nc(-c2ccc(OC)nc2)c(F)c(N)c1Cl [Compound 62] showed a pest or weed control at 70 g/ha of 60 to 74%.

Same assay, conditions: post-emergence, 336 h, SETFA: giant foxtail (Setaria faberi), 140 g ai/ha, 14 days after application, read-out: Visual Growth Reduction (%) 14 Days After Application SETFA
For COC(=O)c1nc(-c2ccc(OC)nc2)c(F)c(N)c1Cl [Compound 62], the pest or weed control at 140 g/ha was 85 to 94%.

Same assay, conditions: post-emergence, 336 h, SORVU: grain sorghum (Sorghum vulgare), 70 g ai/ha, 14 days after application, read-out: Visual Growth Reduction (%) 14 Days After Application SORVU
Compound COC(=O)c1nc(-c2ccc(OC)nc2)c(F)c(N)c1Cl [Compound 62] has a pest or weed control at 70 g/ha of 60 to 74%.

Same assay, conditions: post-emergence, 336 h, SORVU: grain sorghum (Sorghum vulgare), 140 g ai/ha, 14 days after application, read-out: Visual Growth Reduction (%) 14 Days After Application SORVU
For COC(=O)c1nc(-c2ccc(OC)nc2)c(F)c(N)c1Cl [Compound 62], the pest or weed control at 140 g/ha was 75 to 84%.

Same assay, conditions: post-emergence, 336 h, TRZSS (crop), 70 g ai/ha, 14 days after application, read-out: Visual Growth Reduction (%) 14 Days After Application TRZSS
Work on COC(=O)c1nc(-c2ccc(OC)nc2)c(F)c(N)c1Cl [Compound 62] yielded a pest or weed control at 70 g/ha of 45 to 59%.

Same assay, conditions: post-emergence, 336 h, TRZSS (crop), 140 g ai/ha, 14 days after application, read-out: Visual Growth Reduction (%) 14 Days After Application TRZSS
With COC(=O)c1nc(-c2ccc(OC)nc2)c(F)c(N)c1Cl [Compound 62] the pest or weed control at 140 g/ha was 45 to 59%.
